Experimental data: patent EP4748373A1, “PHARMACEUTICAL COMPOSITION CONTAINING HETEROCYCLIC COMPOUND” (Sagimet Biosciences Inc., priority 2023, dated 2025)
Converted amounts (≈) assume the structure as drawn.

Test: equilibrium solubility experiments in buffer media at different pH conditions
Format: physicochemical
Details: for solubility at 1 h / solubility at 22 h: buffer media, thermodynamic from solid
Source text: Additionally, the present invention conducted equilibrium solubility experiments of the monohydrate crystalline API, amorphous API, and hot-melt extrudate dispersion intermediate in buffer media at different pH conditions. Table 3. Summary of equilibrium solubility (µg/ml) of monohydrate crystalline API, amorphous API, and hot-melt extrudate dispersion intermediate

[1] = pH 1.2, simulated gastric fluid, pH 1.2 buffer
[2] = pH 2, simulated gastric fluid, pH 2.0 buffer
[3] = pH 4, aqueous buffer, pH 4.0 buffer
[4] = pH 4.5, aqueous buffer, pH 4.5 buffer
[5] = pH 5, aqueous buffer, pH 5.0 buffer
[6] = pH 6, aqueous buffer, pH 6.0 buffer
[7] = pH 6.8, aqueous buffer, pH 6.8 buffer
[8] = pH 7.5, aqueous buffer, pH 7.5 buffer

## Cc1nnc(-c2cc(C(=O)N3CCC(c4ccc(C#N)cc4)CC3)c(C)cc2C2CCC2)[nH]1 [4-[1-[4-cyclobutyl-2-methyl-5-(5-methyl-1H-1,2,4-triazol-3-yl)benzoyl]piperidin-4-yl]benzonitrile]
[1]
  solubility at 1 h: 30.3 µg/mL (≈ 68.9 µM)
  solubility at 22 h: 27.2 µg/mL (≈ 61.8 µM)
[2]
  solubility at 1 h: 3.57 µg/mL (≈ 8.12 µM)
  solubility at 22 h: 3.22 µg/mL (≈ 7.33 µM)
pH 3, aqueous buffer, pH 3.0 buffer
  solubility at 1 h: 1.07 µg/mL (≈ 2.43 µM)
[3]
  solubility at 1 h: 0.68 µg/mL (≈ 1.55 µM)
  solubility at 22 h: 0.6 µg/mL (≈ 1.36 µM)
[4]
  solubility at 1 h: 0.6 µg/mL (≈ 1.36 µM)
  solubility at 22 h: 0.59 µg/mL (≈ 1.34 µM)
[5]
  solubility at 1 h: 0.47 µg/mL (≈ 1.07 µM)
  solubility at 22 h: 0.51 µg/mL (≈ 1.16 µM)
[6]
  solubility at 1 h: 0.5 µg/mL (≈ 1.14 µM)
  solubility at 22 h: 0.45 µg/mL (≈ 1.02 µM)
[7]
  solubility at 1 h: 0.44 µg/mL (≈ 1 µM)
  solubility at 22 h: 0.42 µg/mL (≈ 0.955 µM)
[8]
  solubility at 1 h: 0.42 µg/mL (≈ 0.955 µM)
  solubility at 22 h: 0.43 µg/mL (≈ 0.978 µM)

## Cc1nnc(-c2cc(C(=O)N3CCC(c4ccc(C#N)cc4)CC3)c(C)cc2C2CCC2)[nH]1 [Compound of formula (I) (monohydrate crystalline form)] [4-[1-[4-cyclobutyl-2-methyl-5-(5-methyl-1H-1,2,4-triazol-3-yl)benzoyl]piperidin-4-yl]benzonitrile]
pH 3.0 buffer
  22-h solubility: 0.97 µg/mL

## Cc1nnc(-c2cc(C(=O)N3CCC(c4ccc(C#N)cc4)CC3)c(C)cc2C2CCC2)[nH]1 [Compound of formula (I) (amorphous API), 4-[1-[4-cyclobutyl-2-methyl-5-(5-methyl-1H-1,2,4-triazol-3-yl)benzoyl]piperidin-4-yl]benzonitrile]
pH 1.2 buffer
  1-h solubility: 50.93 µg/mL
  22-h solubility: 48.62 µg/mL
pH 2.0 buffer
  1-h solubility: 4.52 µg/mL
  22-h solubility: 4.45 µg/mL
pH 3.0 buffer
  1-h solubility: 2.14 µg/mL
  22-h solubility: 2.14 µg/mL
pH 4.0 buffer
  1-h solubility: 0.76 µg/mL
  22-h solubility: 0.74 µg/mL
pH 4.5 buffer
  1-h solubility: 0.65 µg/mL
  22-h solubility: 0.57 µg/mL
pH 5.0 buffer
  1-h solubility: 0.51 µg/mL
  22-h solubility: 0.42 µg/mL
pH 6.0 buffer
  1-h solubility: 0.46 µg/mL
  22-h solubility: 0.44 µg/mL
pH 6.8 buffer
  1-h solubility: 0.46 µg/mL
  22-h solubility: 0.45 µg/mL
pH 7.5 buffer
  1-h solubility: 0.54 µg/mL
  22-h solubility: 0.48 µg/mL
